ChEMBL document CHEMBL4334509, “Garcinol and Related Polyisoprenylated Benzophenones as Topoisomerase II Inhibitors: Biochemical and Molecular Modeling Studies” (J Nat Prod, 2019)
One block for each molecule: values may come before it. Active and inactive are the calls of the source. The calls are words filed in the database; no cut-off is given here.

Assays:
DNA topoisomerase 2-beta [1] = target: T1, DNA topoisomerase 2-beta (Homo sapiens, UniProt Q02880); assay: Inhibition of human topoisomerase 2beta-mediated relaxation of supercoiled pSG483 DNA at 12.5 to 200 uM after 30 mins by ethidium bromide staining based agarose gel electrophoresis method
T1 sequence (Q02880 whole entry): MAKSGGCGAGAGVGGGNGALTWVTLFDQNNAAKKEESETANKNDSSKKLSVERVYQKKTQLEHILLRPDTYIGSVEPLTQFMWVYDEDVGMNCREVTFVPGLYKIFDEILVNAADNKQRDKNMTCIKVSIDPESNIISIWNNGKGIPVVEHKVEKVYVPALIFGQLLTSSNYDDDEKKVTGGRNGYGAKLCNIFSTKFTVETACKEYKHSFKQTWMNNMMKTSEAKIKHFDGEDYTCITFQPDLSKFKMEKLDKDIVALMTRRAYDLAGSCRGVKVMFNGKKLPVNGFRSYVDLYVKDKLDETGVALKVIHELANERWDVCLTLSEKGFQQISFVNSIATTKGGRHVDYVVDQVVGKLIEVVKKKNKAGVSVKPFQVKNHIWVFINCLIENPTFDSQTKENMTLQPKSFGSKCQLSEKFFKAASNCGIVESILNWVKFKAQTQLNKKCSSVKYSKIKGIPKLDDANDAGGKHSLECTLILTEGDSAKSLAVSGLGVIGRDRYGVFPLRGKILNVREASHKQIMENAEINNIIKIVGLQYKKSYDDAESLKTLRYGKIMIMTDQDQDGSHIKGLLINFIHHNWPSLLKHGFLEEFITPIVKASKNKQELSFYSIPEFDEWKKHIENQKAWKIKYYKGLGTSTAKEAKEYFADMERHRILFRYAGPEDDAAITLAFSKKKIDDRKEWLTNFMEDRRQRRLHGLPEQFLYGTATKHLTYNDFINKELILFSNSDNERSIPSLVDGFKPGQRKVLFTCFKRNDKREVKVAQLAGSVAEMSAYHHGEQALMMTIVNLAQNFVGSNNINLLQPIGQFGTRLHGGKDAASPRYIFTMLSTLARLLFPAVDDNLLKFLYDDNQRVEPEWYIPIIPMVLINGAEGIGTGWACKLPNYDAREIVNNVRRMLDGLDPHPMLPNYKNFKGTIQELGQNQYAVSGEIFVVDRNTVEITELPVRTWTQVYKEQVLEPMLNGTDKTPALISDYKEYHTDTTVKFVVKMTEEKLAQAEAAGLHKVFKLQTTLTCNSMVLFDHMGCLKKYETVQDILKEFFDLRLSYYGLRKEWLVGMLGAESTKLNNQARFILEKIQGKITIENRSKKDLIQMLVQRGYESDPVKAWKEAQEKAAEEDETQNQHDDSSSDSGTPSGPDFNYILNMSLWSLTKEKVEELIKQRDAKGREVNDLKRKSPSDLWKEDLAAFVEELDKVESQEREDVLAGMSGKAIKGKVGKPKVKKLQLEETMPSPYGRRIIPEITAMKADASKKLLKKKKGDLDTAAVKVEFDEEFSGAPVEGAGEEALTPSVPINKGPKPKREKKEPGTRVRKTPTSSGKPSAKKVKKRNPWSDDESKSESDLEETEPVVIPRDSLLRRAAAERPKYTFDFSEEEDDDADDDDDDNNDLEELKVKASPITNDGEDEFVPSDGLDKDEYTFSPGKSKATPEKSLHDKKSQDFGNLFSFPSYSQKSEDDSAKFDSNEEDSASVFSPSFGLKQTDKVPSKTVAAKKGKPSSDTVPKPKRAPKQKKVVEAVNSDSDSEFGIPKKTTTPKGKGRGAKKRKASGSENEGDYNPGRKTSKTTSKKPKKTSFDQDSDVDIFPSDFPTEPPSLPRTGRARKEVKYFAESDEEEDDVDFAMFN

[2] = target: T2, DNA topoisomerase 2-alpha (Homo sapiens, UniProt P11388); assay: Inhibition of human topoisomerase 2alpha-mediated relaxation of supercoiled pSG483 DNA at 12.5 to 200 uM after 30 mins by ethidium bromide staining based agarose gel electrophoresis method
[3] = target: T2, DNA topoisomerase 2-alpha; assay: Inhibition of human topoisomerase 2alpha-mediated DNA cleavage at 12.5 to 200 uM using supercoiled pSG483 as substrate after 30 mins by ethidium bromide staining based gel electrophoresis method
[4] = target: T2, DNA topoisomerase 2-alpha; assay: (§1) Mixed-type inhibition of topoisomerase 2alpha ATPase activity (unknown origin) assessed as apparent Vmax per mg protein at 25 uM using salmon sperm DNA as substrate measured every 30 secs for 90 mins in presence of ATP by pyruvate kinase/lactate dehydrogenase enzyme coupled assay (reference value: 136.7 +/- 14.7 mM/min)
DNA topoisomerase 2-beta [5] = target: T1, DNA topoisomerase 2-beta; assay: Inhibition of human topoisomerase 2beta-mediated DNA cleavage at 12.5 to 200 uM using supercoiled pSG483 as substrate after 30 mins by ethidium bromide staining based gel electrophoresis method
[6] = target: T2, DNA topoisomerase 2-alpha; assay: as §1, with “20” for “25”
DNA topoisomerase 2-beta [7] = target: T1, DNA topoisomerase 2-beta; assay: Inhibition of human topoisomerase 2beta-mediated relaxation of supercoiled pSG483 DNA after 30 mins by ethidium bromide staining based agarose gel electrophoresis method
[8] = target: T2, DNA topoisomerase 2-alpha; assay: Poison activity at human topoisomerase 2alpha assessed as linear DNA formation at 12.5 to 200 uM after 30 mins by ethidium bromide staining based agarose gel electrophoresis method
[9] = target: T2, DNA topoisomerase 2-alpha; assay: as §1, with “50” for “25”
DNA = assay: Induction of plasmid DNA (unknown origin) intercalation at 7.81 to 500 uM after 30 mins by ethidium bromide staining based agarose gel electrophoresis method; type: nucleic-acid assay
[10] = target: T2, DNA topoisomerase 2-alpha; assay: Inhibition of human topoisomerase 2alpha-mediated relaxation of supercoiled pSG483 DNA after 30 mins by ethidium bromide staining based agarose gel electrophoresis method
DNA topoisomerase 2-beta [11] = target: T1, DNA topoisomerase 2-beta; assay: Inhibition of human topoisomerase 2beta-mediated DNA cleavage assessed as formation of nicking in DNA at 200 uM using supercoiled pSG483 as substrate after 30 mins by ethidium bromide based gel electrophoresis method
[12] = compound: CC(C)=CCC[C@@]1(C)[C@H](CC=C(C)C)C[C@]2(CC=C(C)C)C(=O)[C@@]1(CC=C(C)C)C(=O)C(C(=O)c1ccc(O)c(O)c1)=C2O; assay: (§2) Mixed-type inhibition of topoisomerase 2alpha ATPase activity (unknown origin) assessed as apparent Km at 10 uM using salmon sperm DNA as substrate measured every 30 secs for 90 mins in presence of ATP by pyruvate kinase/lactate dehydrogenase enzyme coupled assay (reference value: 0.4 +/- 0.1 mM); settings: Homo sapiens
[13] = compound: C=C(C)[C@H](CC=C(C)C)C[C@]12C[C@H](CC=C(C)C)C(C)(C)[C@](CC=C(C)C)(C(=O)C(C(=O)c3ccc(O)c(O)c3)=C1O)C2=O; assay: as §2; settings: Homo sapiens
[14] = compound: CC(C)=CCC/C(C)=C/C[C@@]12C[C@H](CC=C(C)C)C(C)(C)[C@@](CC=C(C)C)(C(=O)C(C(=O)c3ccc(O)c(O)c3)=C1O)C2=O; assay: as §2; settings: Homo sapiens
[15] = compound: CC(C)=CCC[C@@]1(C)[C@H](CC=C(C)C)C[C@]2(CC=C(C)C)C(=O)[C@@]1(CC=C(C)C)C(=O)C(C(=O)c1ccc(O)c(O)c1)=C2O; assay: (§3) Mixed-type inhibition of topoisomerase 2alpha ATPase activity (unknown origin) assessed as apparent Km at 5 uM using salmon sperm DNA as substrate measured every 30 secs for 90 mins in presence of ATP by pyruvate kinase/lactate dehydrogenase enzyme coupled assay (reference value: 0.4 +/- 0.1 mM); settings: Homo sapiens
[16] = compound: CC(C)=CCC/C(C)=C/C[C@@]12C[C@H](CC=C(C)C)C(C)(C)[C@@](CC=C(C)C)(C(=O)C(C(=O)c3ccc(O)c(O)c3)=C1O)C2=O; assay: as §3; settings: Homo sapiens
[17] = compound: C=C(C)[C@H](CC=C(C)C)C[C@]12C[C@H](CC=C(C)C)C(C)(C)[C@](CC=C(C)C)(C(=O)C(C(=O)c3ccc(O)c(O)c3)=C1O)C2=O; assay: Mixed-type inhibition of topoisomerase 2alpha ATPase activity (unknown origin) assessed as apparent Km at 50 uM using salmon sperm DNA as substrate measured every 30 secs for 90 mins in presence of ATP by pyruvate kinase/lactate dehydrogenase enzyme coupled assay (reference value: 0.4 +/- 0.1 mM); settings: Homo sapiens
[18] = compound: CC(C)=CCC/C(C)=C/C[C@@]12C[C@H](CC=C(C)C)C(C)(C)[C@@](CC=C(C)C)(C(=O)C(C(=O)c3ccc(O)c(O)c3)=C1O)C2=O; assay: Mixed-type inhibition of topoisomerase 2alpha ATPase activity (unknown origin) assessed as apparent Km at 20 uM using salmon sperm DNA as substrate measured every 30 secs for 90 mins in presence of ATP by pyruvate kinase/lactate dehydrogenase enzyme coupled assay (reference value: 0.4 +/- 0.1 mM); settings: Homo sapiens
[19] = compound: CC(C)=CCC[C@@]1(C)[C@H](CC=C(C)C)C[C@]2(CC=C(C)C)C(=O)[C@@]1(CC=C(C)C)C(=O)C(C(=O)c1ccc(O)c(O)c1)=C2O; assay: (§4) Mixed-type inhibition of topoisomerase 2alpha ATPase activity (unknown origin) assessed as apparent Km at 25 uM using salmon sperm DNA as substrate measured every 30 secs for 90 mins in presence of ATP by pyruvate kinase/lactate dehydrogenase enzyme coupled assay (reference value: 0.4 +/- 0.1 mM); settings: Homo sapiens
[20] = compound: C=C(C)[C@H](CC=C(C)C)C[C@]12C[C@H](CC=C(C)C)C(C)(C)[C@](CC=C(C)C)(C(=O)C(C(=O)c3ccc(O)c(O)c3)=C1O)C2=O; assay: as §4; settings: Homo sapiens

- inhibition (DNA topoisomerase 2-beta [1]): Active
- inhibition [2]: Active
- inhibition [3]: Active
- Vmax(app) [4]: 93 mM/min
- inhibition (DNA topoisomerase 2-beta [5]): Active
Molecule: CC(C)=CCC[C@@]1(C)[C@H](CC=C(C)C)C[C@]2(CC=C(C)C)C(=O)[C@@]1(CC=C(C)C)C(=O)C(C(=O)c1ccc(O)c(O)c1)=C2O

- inhibition (DNA topoisomerase 2-beta [1]): Active
- inhibition [2]: Active
- inhibition [3]: Active
- inhibition (DNA topoisomerase 2-beta [5]): Active
Molecule: CC(C)=CCC[C@@]1(C)[C@H](CC=C(C)C)C[C@@]2(CC=C(C)C)C(=O)c3c(oc4cc(O)c(O)cc4c3=O)[C@]1(CC=C(C)C)C2=O

- inhibition (DNA topoisomerase 2-beta [1]): Active
- inhibition [2]: Active
- inhibition [3]: Active
- Vmax(app) [6]: 53.6 mM/min
- inhibition (DNA topoisomerase 2-beta [5]): Active
Molecule: CC(C)=CCC/C(C)=C/C[C@@]12C[C@H](CC=C(C)C)C(C)(C)[C@@](CC=C(C)C)(C(=O)C(C(=O)c3ccc(O)c(O)c3)=C1O)C2=O

- IC50 (DNA topoisomerase 2-beta [7]): 101 µM
- Vmax(app) [9]: 84.7 mM/min
- Activity (DNA): inactive
- Vmax(app) [4]: 94 mM/min
- IC50 [10]: 101 µM
Molecule: C=C(C)[C@H](CC=C(C)C)C[C@]12C[C@H](CC=C(C)C)C(C)(C)[C@](CC=C(C)C)(C(=O)C(C(=O)c3ccc(O)c(O)c3)=C1O)C2=O
- Activity [8]: inactive

- inhibition (DNA topoisomerase 2-beta [1]): Active
- inhibition (DNA topoisomerase 2-beta [11]): inactive
- inhibition [2]: Active
Molecule: CC(C)=CCC/C(C)=C/C[C@]12C[C@H](CC=C(C)C)C(C)(C)[C@](CC=C(C)C)(C1=O)c1oc3cc(O)c(O)cc3c(=O)c1C2=O

- inhibition (DNA topoisomerase 2-beta [1]): Active
- inhibition [2]: Active
- inhibition [3]: Active
- inhibition (DNA topoisomerase 2-beta [5]): Active
Molecule: CC(C)=CCC[C@@]1(C)[C@H](CC=C(C)C)C[C@]2(CC=C(C)C)C(=O)[C@@]1(CC=C(C)C)C(=O)c1c2oc2cc(O)c(O)cc2c1=O

B1: DNA topoisomerase 2-alpha (Homo sapiens), P11388 (protein)
chain: MEVSPLQPVNENMQVNKIKKNEDAKKRLSVERIYQKKTQLEHILLRPDTYIGSVELVTQQMWVYDEDVGINYREVTFVPGLYKIFDEILVNAADNKQRDPKMSCIRVTIDPENNLISIWNNGKGIPVVEHKVEKMYVPALIFGQLLTSSNYDDDEKKVTGGRNGYGAKLCNIFSTKFTVETASREYKKMFKQTWMDNMGRAGEMELKPFNGEDYTCITFQPDLSKFKMQSLDKDIVALMVRRAYDIAGSTKDVKVFLNGNKLPVKGFRSYVDMYLKDKLDETGNSLKVIHEQVNHRWEVCLTMSEKGFQQISFVNSIATSKGGRHVDYVADQIVTKLVDVVKKKNKGGVAVKAHQVKNHMWIFVNALIENPTFDSQTKENMTLQPKSFGSTCQLSEKFIKAAIGCGIVESILNWVKFKAQVQLNKKCSAVKHNRIKGIPKLDDANDAGGRNSTECTLILTEGDSAKTLAVSGLGVVGRDKYGVFPLRGKILNVREASHKQIMENAEINNIIKIVGLQYKKNYEDEDSLKTLRYGKIMIMTDQDQDGSHIKGLLINFIHHNWPSLLRHRFLEEFITPIVKVSKNKQEMAFYSLPEFEEWKSSTPNHKKWKVKYYKGLGTSTSKEAKEYFADMKRHRIQFKYSGPEDDAAISLAFSKKQIDDRKEWLTNFMEDRRQRKLLGLPEDYLYGQTTTYLTYNDFINKELILFSNSDNERSIPSMVDGLKPGQRKVLFTCFKRNDKREVKVAQLAGSVAEMSSYHHGEMSLMMTIINLAQNFVGSNNLNLLQPIGQFGTRLHGGKDSASPRYIFTMLSSLARLLFPPKDDHTLKFLYDDNQRVEPEWYIPIIPMVLINGAEGIGTGWSCKIPNFDVREIVNNIRRLMDGEEPLPMLPSYKNFKGTIEELAPNQYVISGEVAILNSTTIEISELPVRTWTQTYKEQVLEPMLNGTEKTPPLITDYREYHTDTTVKFVVKMTEEKLAEAERVGLHKVFKLQTSLTCNSMVLFDHVGCLKKYDTVLDILRDFFELRLKYYGLRKEWLLGMLGAESAKLNNQARFILEKIDGKIIIENKPKKELIKVLIQRGYDSDPVKAWKEAQQKVPDEEENEESDNEKETEKSDSVTDSGPTFNYLLDMPLWYLTKEKKDELCRLRNEKEQELDTLKRKSPSDLWKEDLATFIEELEAVEAKEKQDEQVGLPGKGGKAKGKKTQMAEVLPSPRGQRVIPRITIEMKAEAEKKNKKKIKNENTEGSPQEDGVELEGLKQRLEKKQKREPGTKTKKQTTLAFKPIKKGKKRNPWSDSESDRSSDESNFDVPPRETEPRRAATKTKFTMDLDSDEDFSDFDEKTDDEDFVPSDASPPKTKTSPKLSNKELKPQKSVVSDLEADDVKGSVPLSSSPPATHFPDETEITNPVPKKNVTVKKTAAKSQSSTSTTGAKKRAAPKGTKRDPALNSGVSQKPDPAKTKNRRKRKPSTSDDSDSNFEKIVSKAVTSKKSKGESDDFHMDFDSAVAPRAKSVRAKKPIKYLEESDEDDLF
- Km [12]: 800 µM
- Km [13]: 300 µM
- Km [14]: 900 µM
- Km [15]: 600 µM
- Km [16]: 600 µM
- Km [17]: 800 µM
- Km [18]: 1600 µM
- Km [19]: 1000 µM
- Km [20]: 700 µM
